Here are results for one molecule from patent US10131635B2, “Compositions and methods of using the compositions for plaque softening” (ALUMEND, LLC, priority 2013, dated 2018).

Series [1] in a line: Storage stability of the naphthalimide dimer (solution and powder). Format: physicochemical. The source says:
A preparative HPLC approach was used to isolate and specifically purify the compound of formula (V) dimer from the compound of formula (V) naphthalimide product produced from the ethanol crystallization. The HPLC method used was based on the purity method outlined above; however, method modifications were made to replace acetonitrile with ethanol and TFA with acetic acid in the mobile phase. The preparative separation utilized a C18 column (X-bridge, 10 μm, 19×250 mm, Waters). The mobile phase consisted of mobile phase A, 0.1% acetic acid (aq), and mobile phase B, 9:1 ethanol:water (0.1% v/v acetic acid). The column was pre-equilibrated at a starting mobile phase of 95% A:5% B for 20 minutes, at the start of the gradient was a 2 minute hold followed by a linear gradient to 90% B at 40 minutes and a 10 minute hold. An injection volume of 8.5 mL (12 mg/mL purified compound of formula (V)) and flow rate of 8.5 mL/minute were used as well as a detector wavelength of 440 nm. The compound of formula (V) fractions were collected and analyzed using the analytical purity method presented above. Fractions meeting a minimum purity criterion were combined and the solvent driven off by rotovapping the solution to dryness. […] Finally the product was quantitatively transferred from the round bottom flask to a freeze drying flask by dissolving the product in a minimal amount of deionized water. […]

Series [2] has as its system hard and soft plaque of common and lower femoral artery. Description: Tissue immersion: hardness of plaque by manipulation with a forcep. The arrangement: species or system human. To be noted: PBS pH 7.4. An excerpt:
A sample of human tissue from the common and lower femoral artery was received. It was stored in saline and refrigerated until use. Based upon visual and tactile observations, the arteries were approximately 7-8 mm in diameter and contained evidence of both hard and soft plaque. The soft plaque has a yellow fatty appearance that is distinguishable from the vessel wall. The hard plaque presents itself as hard pieces of material that can be pulled (with a forceps) from the soft plaque. Sections of the artery suitable for catheter work were segregated and stored in phosphate buffered saline (PBS), pH=7.4. From the remaining arterial sections, pieces of tissue containing both hard and soft plaque were removed. These pieces were either placed in a solution of PBS (pH=7.4), or dimeric naphthalimide, such as a compound of formula (V) (which is in PBS, pH=7.4). Prior to immersion in either solution the relative hardness of the plaque was evaluated via manual manipulation with a forcep. After a 5 minute soak in solution (typical exposure time), no difference in the samples soaked in PBS was noticed (control). […] The samples were then left in their respective solutions for an additional 90 minutes.

The next series deals with artery. Description: Artery treated with composition, angioplasty and photoactivation: fissure observation. More on the design: species or system human. As for the experimental part:
The tissue was an artery approximately 7.4 mm in diameter. An Ultra-thin SDS 8 mm×30 mm catheter was used to dilate the artery to 7.55 mm (approximately a 2% overstretch). A fissure or a possible dissection running down the length of the tissue sample was observed.
A section (6.5 cm in length) of artery was exposed to the composition for 5 minutes. An 80 mm catheter was used to impart a 25% overstretch to the artery. The angioplasty was followed by photoactivation at 1800 mW for 60 seconds using the same 80 mm catheter with a 60 mm light fiber centered in the catheter.
A catheter with an 80 mm treatment zone balloon was used however the photoactivating light fiber was only 60 mm in length. During activation it was noted that the light fiber was shifted distally in the catheter. This meant that the distal end of the artery was receiving photoactivation, however, the proximal end received little or no light. A fissure down the length of the artery was again observed.

The test system of series [3] is plaque in diseased arteries from limb amputations. Description: Plaque penetration: diseased arteries soaked with composition, balloon and light activation, visual and histological examination. The arrangement: species or system human. To be noted: 2 mg/mL in PBS pH 7.4, 5 minute soak. How it is done: Diseased arteries were obtained from limb amputations (leg) due to advanced Periperal Arterial Disease (PAD) from patients at a regional hospital. The received arteries were evaluated and chosen such that the diseased section was of reasonable size to accommodate the treatment catheter balloon length being used. The catheter balloon diameter used was also matched to the diameter of the artery and capable of achieving a 1:1.25 (ratio of artery diameter to balloon diameter) overstretch. The artery was laid in a petri dish and an angioplasty balloon was inserted and inflated for 60 seconds to impart the desired overstretch. While the angioplasty balloon was inflated a permanent marker was used to define the treatment zone (where the overstretch was imparted by the balloon) on the outer surface of the artery. The angioplasty balloon was deflated and removed. The inner lumen of the diseased artery was exposed to a plaque softening composition comprising a compound of formula (V) naphthalimide formulation (2 mg/mL in phosphate buffered saline, pH=7.4) for a period of 5 minutes. For the purpose of filling the artery, one end was clamped, the artery was held upright and a syringe was used to dispense the naphthalimide solution until the inner lumen was filled. The open end of the artery was then clamped and the soaking period of 5 minutes commenced. […] Arteries were cut open lengthwise and the treated section was evaluated by visual examination.
Prior to cutting the artery for visual examination samples from the treated and untreated sections were collected and preserved for histological examination. […] After this time, samples were stored in a −80° C. freezer until ready for further analysis. […] The crystalline nature of hard plaque is readily visible without staining. Under this magnification the crystalline structure of the calcific plaque was readily visible, as shown in FIG. 8 the dark area between the two lighter colored areas of the media. […]

“Also recorded” adds a separate entry of the source.

Take `NCCOCCOCCN1C(=O)c2cccc3c(NCCOCCOCCNc4ccc5c6c(cccc46)C(=O)N(CCOCCOCCN)C5=O)ccc(c23)C1=O` [compound of formula (V)]: in series [1] (periods exceeding two years of storage in a dessicator at −20° C.), the “degradation of dimer in powder form” value is “no evidence of degradation”. For the same molecule, the “stability of dimer solution (excellent stability for periods up to)” value in series [1] (solution at pH 7.4) was “up to 18 months”. Also, the “relative hardness of plaque” value in series [2] (after a 5 minute soak) was “slight softening”; in series [2] (after an additional 90 minutes in solution) it was “significantly softer and more pliable”. The repair of fissure result with artery (angioplasty, then composition, distal part with adequate photoactivation) is on record as “there appeared to be a seam indicating repair”. The “fissure in opened artery” value in the series with artery (composition 5 minutes, then angioplasty 25% overstretch, photoactivation 1800 mW 60 seconds) is on record as “no fissure observed”. Also, the “observation of tacking of intimal flaps” value in series [3] (447 nm 625 mW/cm 60 seconds) is “tacking of intimal flaps”. The “visual observation of plaque softness in treated region” value in series [3] (447 nm 625 mW/cm 60 seconds) was “apparent softened plaque in the treated region; also recorded: more malleable”. In addition, the “calcium crystals under microscope, treated vs untreated sections” value in series [3] (light activation) is given as “less evidence of calcium crystals”.
